One block for each molecule: values may come before it.
Tests used:
[1] = General cytotoxicity on HepG2 cells (CC50; therapeutic index CC50 HepG2/IC50 Mino); format: cell-based; details: human, HepG2 cells (hepatocellular carcinoma); Table 10; 72 hours, Alamar Blue; average of several tests
Procedure, shortened: (§1)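 Cells seeded at 2*10^4 per well in DMEM, compounds added after 24 h at 200 μM to 4 μM final and incubated 72 h. Viability read with Alamar Blue to derive CC50; therapeutic index is CC50 (HepG2) divided by IC50 (Mino).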

[2] = system: HepG2 cells (hepatocellular carcinoma); assay: as above; format: cell-based; details: Table 10; therapeutic index
Procedure, shortened: as §1

[3] = system: Mino (mantle cell lymphoma); assay: Antiproliferative activity, Mino cells (Alamar Blue); format: cell-based; details: Homo sapiens, Table 10, 72 h, average of several tests
Procedure, shortened: (§2)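 RPMI-1640/10% FBS/gentamicin, ~3*10^4 cells/well; cpd in DMSO (final <1%), 72 h, 37 °C, 5% CO2. Alamar Blue 14-16 h; fluor. Ex540/Em590. IC50 from 4-parameter logistic (Levenberg-Marquardt).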

[4] = system: Z-138 (mantle cell lymphoma); assay: Antiproliferative activity, Z-138 cells (Alamar Blue); format: cell-based; details: Homo sapiens, Table 10, 72 h, average of several tests
Procedure, shortened: as §2

[5] = Chemical stability in artificial gastric fluid (SGF without enzymes); details: 10 μM in SGF without enzymes, pH=1.4, 37° C.
[6] = system: DOHH2 (follicular lymphoma); assay: Antiproliferative activity, DOHH2 cells (Alamar Blue); format: cell-based; details: Homo sapiens, DOHH-2, Table 10, 72 h, average of several tests
Protocol: Antiproliferative activity of BTK inhibitors was measured in cell-based bioassay on B-cells cultures: Mino (mantle cell lymphoma, ATCC® CRL-3000™), Z-138 (mantle cell lymphoma, ATCC® CRL-3001™) and DOHH2 (follicular lymphoma, Creative Bioarray CSC-C0219) using cell viability reagent Alamar Blue (Invitrogen, #DAL 1100). Cells were cultured in 10% FB S-supplemented (HyClone, #SH3008803/Gibco, #16140-071) RPMI-1640 (PanEco, #S330p) for at least 1 passage after thawing, washed with PBS and passaged in 96-well culture plates (Corning, #3599) with growth medium with 10% FBS (HyClone, #SH3008803/Gibco, #16140-071) and antibiotic (50 μg/ml of gentamicin (Biolot, #1.3.16))≈3*10^4 cells in 50 μl of medium per well.
The compounds were dissolved in DMSO and diluted with the assay medium to final concentrations ranging from […]. 150 μl of each diluted compound were then added to each well (final concentration of DMSO was less than 1%) and incubated at 37° C. in an incubator under 5% of CO2 for 72 h. After incubation, 20 μl of Alamar Blue reagent (Invitrogen, #DAL1100) were added to each well. The plates were shaked on an orbital shaker (Biosan, Latvia) and then incubated for 14-16 hours at 37° C. in the incubator.
The number of living cells were estimated, measuring the fluorescence signal at the excitation wavelength (REx) of 540 nm and the emission wavelength (λEm) of 590 nm on a microplate reader (Tecan Infinite M200Pro, Switzerland).
For each compound, IC50 was calculated using Magellan 7.2 software (Tecan, Switzerland) approximating experimental points by four-parameter logistic model with the optimization by Levenberg-Marquardt.

[7] = Stability in human blood plasma; details: 10 μM in pooled human blood plasma, incubated 4 hours at 37° C.
[8] = Permeability through the monolayer of Caco-2 cells; format: in vitro ADME; details: human; for Papp A→B at 2 h, 10 μM / Papp B→A at 2 h, 10 μM: 2 h at 37° C.; for efflux ratio at 2 h, 10 μM: read-out: efflux (Papp B-A/Papp A-B)
From the text: Assessment of permeability through the monolayer of Caco-2 cells allows to evaluate the ability of the candidate compounds to penetrate through biological membranes by active and passive transport.
Caco-2, the cells of the intestinal epithelium, had been cultured in transwell plate inserts with the filters (with pores of 0.4 μm, BD Falcon with High Density, #353495) for 21 days, and then the integrity of the monolayer were estimated with Lucifer Yellow dye (Sigma-Aldrich, USA) by standard protocol. When setting the A→B transfer, solutions of test substances were added in a buffer with pH 6.5 (Hanks solution, 10 mM HEPES, 15 mM glucose solution) with the concentration of 10 μM into the upper chamber; the lower chamber was filled with a buffer with pH 7.4 (Hanks solution, 10 mM HEPES, 15 mM glucose solution, 1% BSA). When setting B→A transfer, the upper chamber was filled with the buffer with pH 6.5, and solutions of the test substances were added in the buffer with pH 7.4 at the concentration of 10 μM in the lower chamber. Propranolol was used as a control substance (as it has high permeability).
We used gradient elution (1 mL/min flow rate). We determined the areas of peaks corresponding to the compounds. On the basis of peak areas in the calibration standards we determined the concentration of compound in the initial solution and in the samples from the wells of the upper and lower chambers.
Papp, permeability through the cell layer, was calculated using the following formula:
Papp=(C(t)*V)/(C(0)*t*Area), where
Papp is the effective constant of permeability, m/s V is the volume of solution (0.8 ml in A→B test, 0.2 ml in B→A test), ml Area is the surface area of the membrane (0.33 cm^2), cm^2 t is the time of incubation (7200 sec), sec C(0) is the concentration of the initial solution, μM C(t) is the concentration of the solution after 2 hours (the concentration in the sample from the well of the lower chamber in A→B test; the concentration in the sample from the well of the top chamber in B→A test), μM
The value was calculated with the following formula:
efflux=Papp B-A/Papp A-B, where
Papp A-B is the value of the permeability in the direct test (A→B); Papp B-A is the value of the permeability in the backward test in (B→A).

- IC50 [3]: 10.3 µM
- IC50 [4]: 78.3 µM
- Amount of substance in the sample in % (chemical stability) [5]: 99.3%
- IC50 [6]: 26.6 µM
- Amount of substance in the sample, % (stability in human blood plasma) [7]: 91.0%
Structure (SMILES): C=CC(=O)N1CCC[C@@H](n2nc(-c3ccc(C(=O)Nc4cc(C(F)(F)CCC)ccn4)cc3)c3cncc(C#N)c32)C1 [BCD-BTK-268, (R)-4-(1-(1-acryloylpiperidin-3-yl)-7-cyano-1H-pyrazolo[4,3-c]pyridin-3-yl)-N-(4-(1,1-difluorobutyl)pyridin-2-yl)benzamide]
- CC50 at 72 h [1]: > 100 µM
- CC50 (HepG2)/IC50 (Mino) [2]: >9.69

- IC50 [3]: 10.5 µM
- IC50 [4]: 4.98 µM
- Amount of substance in the sample in % (chemical stability) [5]: 91.3%
- IC50 [6]: 3.05 µM
- Amount of substance in the sample, % (stability in human blood plasma) [7]: 80.5%
Structure (SMILES): C=CC(=O)N1CCC[C@@H](n2nc(-c3ccc(C(=O)Nc4cc(C(F)(F)F)ccn4)cc3)c3cncc(C#N)c32)C1 [BCD-BTK-221, 4-{7-cyano-1-[1-(prop-2-enoyl)piperidin-3-yl]-1H-pyrazolo[4,3-c]pyridin-3-yl}-N-[4-(trifluoromethyl)pyridin-2-yl]benzamide]
- CC50 at 72 h [1]: 5.32 µM
- CC50 (HepG2)/IC50 (Mino) [2]: 0.51

- IC50 [3]: 17.9 µM
- IC50 [4]: 30.1 µM
- Amount of substance in the sample in % (chemical stability) [5]: 99.8%
- IC50 [6]: 20.6 µM
Structure (SMILES): C=CC(=O)N1CCC[C@@H](n2nc(-c3cnc(C(=O)Nc4cccc(F)n4)nc3)c3cncc(Cl)c32)C1 [BCD-BTK-277, (R)-5-(1-(1-acryloylpiperidin-3-yl)-7-chloro-1H-pyrazolo[4,3-c]pyridin-3-yl)-N-(6-fluoropyridin-2-yl)pyrimidine-2-carboxamide]
- CC50 at 72 h [1]: 41.9 µM
- CC50 (HepG2)/IC50 (Mino) [2]: 2.33

- IC50 [3]: 2.26 µM
- IC50 [4]: 3.39 µM
- Amount of substance in the sample in % (chemical stability) [5]: 100%
- Papp A→B at 2 h, 10 μM [8]: 9.8 ×10⁻⁶ cm/s
- Papp B→A at 2 h, 10 μM [8]: 1.84 ×10⁻⁶ cm/s
- efflux ratio at 2 h, 10 μM [8]: 0.19
- Amount of substance in the sample, % (stability in human blood plasma) [7]: 93.1%
Structure (SMILES): C=CC(=O)N1CCC[C@@H](n2nc(-c3ccc(C(=O)Nc4cc(C(F)(F)CC)ccn4)cc3)c3c(N)ncc(Cl)c32)C1 [BCD-BTK-231, (R)-4-(1-(1-acryloylpiperidin-3-yl)-4-amino-7-chloro-1H-pyrazolo[4,3-c]pyridin-3-yl)-N-(4-(1,1-difluoropropyl)pyridin-2-yl)benzamide]
- CC50 at 72 h [1]: 9.08 µM
- CC50 (HepG2)/IC50 (Mino) [2]: 4.01

- IC50 [3]: 15.3 µM
- IC50 [4]: 10.8 µM
- Amount of substance in the sample in % (chemical stability) [5]: 95.9%
- Papp A→B at 2 h, 10 μM [8]: 6.27 ×10⁻⁶ cm/s
- Papp B→A at 2 h, 10 μM [8]: 3.58 ×10⁻⁶ cm/s
- efflux ratio at 2 h, 10 μM [8]: 0.57
- Amount of substance in the sample, % (stability in human blood plasma) [7]: 88.6%
Structure (SMILES): C=CC(=O)N1CCC[C@@H](n2nc(-c3ccc(Oc4ccncc4C#N)cc3)c3c(N)ncc(Cl)c32)C1 [BCD-BTK-232, (R)-4-(4-(1-(1-acryloylpiperidin-3-yl)-4-amino-7-chloro-1H-pyrazolo[4,3-c]pyridin-3-yl)phenoxy)nicotinonitrile]
- CC50 at 72 h [1]: 31.1 µM
- CC50 (HepG2)/IC50 (Mino) [2]: 2.04

The next lines start with the molecule.

Structure (SMILES): C=CC(=O)N1CCC[C@@H](n2nc(-c3ccc(Oc4ccncc4C#N)cc3)c3cncc(C#N)c32)C1 [BCD-BTK-213, (R)-1-(1-acryloylpiperidin-3-yl)-3-(4-(3-cyanopyridin-4-yloxy)phenyl)-1H-pyrazolo[4,3-c]pyridine-7-carbonitrile]
- CC50 at 72 h [1]: > 100 µM
- CC50 (HepG2)/IC50 (Mino) [2]: >31.3
- IC50 [3]: 3.19 µM
- IC50 [4]: 9.7 µM
- Papp A→B at 2 h, 10 μM [8]: 8.39 ×10⁻⁶ cm/s
- Papp B→A at 2 h, 10 μM [8]: 5.17 ×10⁻⁶ cm/s
- efflux ratio at 2 h, 10 μM [8]: 0.62
- IC50 [6]: 19.7 µM

Structure (SMILES): C=CC(=O)N1CCC[C@@H](n2nc(-c3ccc(-n4ccc(=O)cc4)cc3F)c3cncc(Cl)c32)C1 [BCD-BTK-204, (R)-1-(4-(1-(1-acryloylpiperidin-3-yl)-7-chloro-1H-pyrazolo[4,3-c]pyridin-3-yl)-3-fluorophenyl)pyridin-4(1H)-one]
- CC50 at 72 h [1]: 62 µM
- CC50 (HepG2)/IC50 (Mino) [2]: 2.95
- IC50 [3]: 21 µM
- IC50 [4]: 20.9 µM
- IC50 [6]: 23.5 µM
- Amount of substance in the sample, % (stability in human blood plasma) [7]: 91.9%

Structure (SMILES): C=CC(=O)N1CCC[C@@H](n2nc(-c3ccc(-n4ccc(=O)cc4)c(F)c3)c3cncc(Cl)c32)C1 [BCD-BTK-205, (R)-1-(4-(1-(1-acryloylpiperidin-3-yl)-7-chloro-1H-pyrazolo[4,3-c]pyridin-3-yl)-2-fluorophenyl)pyridin-4(1H)-one]
- CC50 at 72 h [1]: 57.2 µM
- CC50 (HepG2)/IC50 (Mino) [2]: 3.45
- IC50 [3]: 16.6 µM
- IC50 [4]: 24.9 µM
- IC50 [6]: 20.2 µM
- Amount of substance in the sample, % (stability in human blood plasma) [7]: 88.6%

Structure (SMILES): CC#CC(=O)N1CC(Cn2nc(-c3ccc(Oc4ccncc4)cc3)c3cncc(Cl)c32)C1 [BCD-BTK-261, 1-(3-((7-chloro-3-(4-(pyridin-4-yloxy)phenyl)-1H-pyrazolo[4,3-c]pyridin-1-yl)methyl)azetidin-1-yl)but-2-yn-1-one]
- CC50 at 72 h [1]: 8.33 µM
- CC50 (HepG2)/IC50 (Mino) [2]: 1.95
- IC50 [3]: 4.27 µM
- IC50 [4]: 5.01 µM
- Amount of substance in the sample in % (chemical stability) [5]: 100%
- Papp A→B at 2 h, 10 μM [8]: 8.3 ×10⁻⁶ cm/s
- Papp B→A at 2 h, 10 μM [8]: 0.95 ×10⁻⁶ cm/s
- efflux ratio at 2 h, 10 μM [8]: 0.11
- Amount of substance in the sample, % (stability in human blood plasma) [7]: 100.0%
